In patent US11091501B2, “Heterocyclic compounds as RSV inhibitors” (Enanta Pharmaceuticals, Inc., priority 2017, dated 2021) one finds EC50 data, which are given here for 29 compounds.

The assay deals with Human RSV-A (“Long” strain). As to the kind of experiment: RSV in vitro cytoprotection assay (CPE, ATPlite) in HEp-2 cells. The note with it: human respiratory syncytial virus, 96 h; HEp-2 cells, 4-day incubation, ATPlite readout; read-out: Human RSV-A (“Long” strain) EC50. The format is cell-based. In outline:
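HEp-2 cells (8,000/well) given 2-fold serial compound dilutions in duplicate, then infected with sucrose-stabilised RSV-A Long stock. After 4 days, cell viability read by ATPlite luminescence, with a parallel uninfected plate for cytotoxicity. EC50 binned A<0.01 μM, B 0.01-0.05 μM, C>0.05 μM.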
(In general: Cellular ATP, detected with luciferase, serves as a proxy for viable cell number.)
As to `O=C(Nc1c(F)cccc1F)c1cc2c(s1)-c1ccc(F)cc1N(C(=O)c1ccc(NC(=O)c3cccnc3C3=CCOCC3)cc1)CC2` [Example 60], the EC50 is above 50 nM. For the compound `O=C(Nc1ncccc1C(F)(F)F)c1cc2c(s1)-c1ccc(F)cc1N(C(=O)c1ccc(NC(=O)c3cc4c(nc3N3CC5(CCOCC5)C3)CCC4)cc1)CC2` [Example 139], the EC50 is below 10 nM. As for `O=C(Nc1c(F)cccc1Cl)c1cc2c(s1)-c1cc(F)c(F)cc1N(C(=O)c1ccc(NC(=O)c3cc(F)cnc3N3CC4(CCOCC4)C3)cc1)CC2` [Example 74], the EC50 lay in the range of 10 to 50 nM. With `O=C(Nc1c(F)cc(F)cc1Cl)c1nc2c(s1)-c1ccccc1N(C(=O)c1ccc(NC(=O)c3cccnc3N3CC4(CCOCC4)C3)cc1)CC2` [Example 106] the figure was 10 to 50 nM.

`Cc1ccc(C(=O)Nc2ccc(C(=O)N3CCc4cc(NC(=O)c5ncccc5F)sc4-c4ccccc43)cc2)c(N2CC3(CCOCC3)C2)n1` [Example 278]: the EC50 is below 10 nM. For `Cc1cnc(N2CC3(CCOCC3)C2)c(C(=O)Nc2ccc(C(=O)N3CCc4c(sc(-c5nc6ccccc6[nH]5)c4F)-c4ccccc43)cc2)c1` [Example 201], the EC50 is below 10 nM. Then `Cc1ccc(C(=O)Nc2ccc(C(=O)N3CCc4c(sc(NC(=O)c5c(C)cccc5F)c4F)-c4ccccc43)cc2)c(N2CC3(CCOCC3)C2)n1` [Example 308], with 10 to 50 nM. On to `Cc1cccc(F)c1NC(=O)c1cc2c(s1)-c1cc(F)c(F)cc1N(C(=O)c1ccc(NC(=O)c3cc(F)cnc3N3CC4(CCOCC4)C3)cc1)CC2` [Example 72], for which the EC50 fell in the range of 10 to 50 nM. Consider `O=C(Nc1c(F)cc(F)cc1F)c1cc2c(s1)-c1ccc(F)cc1N(C(=O)c1ccc(NC(=O)c3cc(F)cnc3N3CC4(CCOCC4)C3)cc1)CC2` [Example 4], for which the EC50 is above 50 nM. Regarding `Cc1cnc(N2CC3(CCOCC3)C2)c(C(=O)Nc2ccc(C(=O)N3CCc4cc(NC(=O)Oc5ccccc5)sc4-c4ccccc43)cc2)c1` [Example 296], the EC50 is 10 to 50 nM.

As to `Cc1cccc(F)c1NC(=O)c1cc2c(s1)-c1ccc(F)cc1N(C(=O)c1ccc(NC(=O)c3cc4ccccc4nc3N3CC4(CCOCC4)C3)cc1)CC2` [Example 14], the EC50 was below 10 nM. Then `Cc1cnc(N2CC3(CCOCC3)C2)c(C(=O)Nc2ccc(C(=O)N3CCc4cc(NC(=O)OC(C)C)sc4-c4ccccc43)cc2)c1` [Example 297], with below 10 nM. With `Cc1cnc(N2CC3(CCOCC3)C2)c(C(=O)Nc2ccc(C(=O)N3CCc4cc(-c5nnc(C)s5)sc4-c4ccc(F)cc43)cc2)c1` [Example 150] the figure was below 10 nM; with `O=C(Nc1c(F)cc(F)cc1Cl)c1cc2c(s1)-c1c(cc(F)c(F)c1F)N(C(=O)c1ccc(NC(=O)c3cccnc3N3CC4(CCOCC4)C3)cc1)CC2` [Example 81], 10 to 50 nM.

`O=C(Nc1c(F)cccc1F)c1cc2c(s1)-c1cc(F)c(F)cc1N(C(=O)c1ccc(NC(=O)c3cccnc3N3CC4(CCOCC4)C3)cc1)CC2` [Example 76]: the EC50 was below 10 nM. With `Cc1cnc(N2CC3(CCOCC3)C2)c(C(=O)Nc2ccc(C(=O)N3CCc4cc(-c5c[nH]c6ccc(C)cc56)sc4-c4ccc(F)cc43)cc2)c1` [Example 176] the figure was above 50 nM; with `O=C(Nc1c(F)cccc1F)c1cc2c(s1)-c1ccc(F)cc1N(C(=O)c1ccc(NC(=O)c3cccnc3N3CC4(CCOCC4)C3)cc1)CC2` [Example 19], below 10 nM; with `Cc1cnc(N2CC3(CCOCC3)C2)c(C(=O)Nc2ccc(C(=O)N3CCc4cc(C(=O)Nc5c(F)cccc5C(F)(F)F)sc4-c4ccc(F)cc43)cc2)c1` [Example 5], below 10 nM. Then `Cc1cccc(C)c1NC(=O)c1cc2c(o1)-c1ccccc1N(C(=O)c1ccc(NC(=O)c3cc4c(nc3N3CC5(CCOCC5)C3)CCC4)cc1)CC2` [Example 252], with below 10 nM.

On to `Cc1cccc(F)c1NC(=O)c1cc2c(s1)-c1ccc(F)cc1N(C(=O)c1ccc(NC(=O)c3cc(F)cnc3N3CC4(CCOCC4)C3)cc1)CC2` [Example 36], for which the EC50 is below 10 nM. In the case of `O=C(Nc1ccc(C(=O)N2CCc3cc(-c4nc5ccccc5[nH]4)oc3-c3ccc(F)cc32)cc1)c1cc2c(nc1N1CC3(CCOCC3)C1)CCCC2` [Example 245], the EC50 was in the range of 10 to 50 nM. With `Cc1cnc(N2CC3(CCOCC3)C2)c(C(=O)Nc2ccc(C(=O)N3CCc4cc(-c5nccs5)sc4-c4ccc(F)cc43)cc2)c1` [Example 154], the EC50 is below 10 nM. Take `Cc1ccc(C(=O)Nc2ccc(C(=O)N3CCc4cc(C(=O)Nc5c(C)cccc5F)sc4-c4ccccc43)cc2)c(N2CC3(CCOCC3)C2)n1` [Example 276]: the concentration for a half-maximal effect (EC50) lay in the range of 10 to 50 nM. As for `O=C(Nc1c(F)cccc1F)c1cc2c(s1)-c1ccc(F)cc1N(C(=O)c1ccc(NC(=O)c3cccnc3-c3ccc(N4CCOCC4)cc3)cc1)CC2` [Example 62], the EC50 was above 50 nM. For the compound `Cc1cnc(N2CC3(CCOCC3)C2)c(C(=O)Nc2ccc(C(=O)N3CCc4cc(NC(=O)OC5CCCCC5)sc4-c4ccccc43)cc2)c1` [Example 294], the EC50 was 10 to 50 nM. For the compound `Cc1cnc(N2CC3(CCOCC3)C2)c(C(=O)Nc2ccc(C(=O)N3CCc4c(sc(C(=O)Nc5ccccc5F)c4Cl)-c4ccccc43)cc2)c1` [Example 270], the EC50 is below 10 nM. Regarding `Cc1ccc(C(=O)Nc2ccc(C(=O)N3CCc4cc(C(=O)Nc5ccccc5F)oc4-c4ccccc43)cc2)c(N2CC3(CCOCC3)C2)n1` [Example 258], the EC50 is below 10 nM. In the case of `Cc1cnc(N2CC3(CCOCC3)C2)c(C(=O)Nc2ccc(C(=O)N3CCc4cc(C(=O)Nc5nc(C)co5)sc4-c4ccc(F)cc43)cc2)c1` [Example 135], the EC50 was below 10 nM. Then `O=C(Nc1c(F)cccc1F)c1cc2c(s1)-c1ccc(F)cc1N(C(=O)c1ccc(NC(=O)c3cc(C(F)F)cnc3N3CC4(CCOCC4)C3)cc1)CC2` [Example 146], with 10 to 50 nM.

Broadly, the EC50 is the concentration at which the effect is half-maximal.
